Assay [1] has as its target T1, mTOR (Homo sapiens, UniProt P42345). In words: mTOR inhibition. It is filed as biochemical. To be noted: up to 10 μM.
The test system of a further assay is PC-3 cells. Nature of the assay: In vitro anti-proliferative activity, CelltiterGlo, ray design. It is filed as cell-based, human. To be noted: PC-3, single agent, 96 hours; brackets: interval. As for the experimental part:
The human prostate cancer PC-3 cell line was purchased at ATCC (Ref number CRL-1435). The PC-3 cells were cultured in DMEM High Glucose medium supplemented with 10% FBS and 2 mM L-Glutamine.
They were diluted serially, in DMSO following a 3 or 3.3-fold dilution step: then each solution was diluted 50-fold in culture medium containing 10% serum before being added onto cells with a 20-fold dilution factor. The DMSO concentration was 0.1% in controls and in all treated wells.
(§1) A ray design method was used allowing the characterization of the interaction of the two compounds for several fixed proportion in the mixture. The ray design includes one ray for each single agent and 19 combination rays.
PC-3 cells were plated at 1,000 cells/well in 384-well plates in appropriate culture medium and incubated for 6 hours at 37° C., 5% CO2. […] Cell growth was evaluated by measuring intracellular ATP using CelltiterGlo® reagent (Promega) according to the manufacturer's protocol. Briefly, CellTiterGlo® was added to each plate, incubated for 1 hour then luminescent signal was read on the MicroBeta Luminescent plate reader. Three experiments have been performed on the cell line. […]
Growth inhibition percentage (GI %) was calculated according to the following equation: […]
On the technique in general: In ATP-based viability assays light output follows the ATP content of the culture.

The test system of another assay is HEC-116 cells. The assay is described as above. It is filed as cell-based, human. To be noted: HEC-116, single agent, 96 hours; brackets: interval. Here is the method: The human endometrium adenocarcinoma cell line HEC-116 cell line was purchased at JCRB (Ref number JCRB1124 Batch 11072005). The HEC-116 cells were cultured in MEMa medium supplemented with 15% FBS and 2 mM L-Glutamine.
Compounds (I) and (II) dilutions were prepared according to the material and methods of example 1. The final concentrations tested were defined by ray design method described below. The DMSO concentration was 0.1% in controls and in all treated wells.
as §1
HEC-116 cells were plated at 3,000 cells/well in 384-well plates in appropriate culture medium and incubated for 6 hours at 37° C., 5% CO2. […] Cell growth was evaluated by measuring intracellular ATP using CelltiterGlo® reagent (Promega) according to the manufacturer's protocol. Briefly, CellTiterGlo® was added to each plate, incubated for 1 hour then luminescent signal was read on the MicroBeta Luminescent plate reader.
Three experiments have been performed on this cell line. For each experiment, two 384-well plates were used allowing working with two replicates for combination rays and with four replicates for single agent rays. […]

The target of a further assay is PI3Kdelta (Homo sapiens, UniProt O00329). To be noted: PI3Kβ versus PI3Kdelta; cited from earlier work.
The target of a further assay is PI3Kalpha (Homo sapiens, UniProt P42336). To be noted: PI3Kβ versus PI3Kalpha; cited from earlier work.
The target of another assay is PI3Kgamma (Homo sapiens, UniProt P48736). To be noted: PI3Kβ versus PI3Kgamma; cited from earlier work.
Assay [2] addresses T1, mTOR. To be noted: PI3Kβ versus mTOR; cited from earlier work.
In the next assay the test system is 294 other kinases. To be noted: at 10 μM; cited from earlier work.

Sequence of PI3Kalpha (P42336 whole entry, species assumed): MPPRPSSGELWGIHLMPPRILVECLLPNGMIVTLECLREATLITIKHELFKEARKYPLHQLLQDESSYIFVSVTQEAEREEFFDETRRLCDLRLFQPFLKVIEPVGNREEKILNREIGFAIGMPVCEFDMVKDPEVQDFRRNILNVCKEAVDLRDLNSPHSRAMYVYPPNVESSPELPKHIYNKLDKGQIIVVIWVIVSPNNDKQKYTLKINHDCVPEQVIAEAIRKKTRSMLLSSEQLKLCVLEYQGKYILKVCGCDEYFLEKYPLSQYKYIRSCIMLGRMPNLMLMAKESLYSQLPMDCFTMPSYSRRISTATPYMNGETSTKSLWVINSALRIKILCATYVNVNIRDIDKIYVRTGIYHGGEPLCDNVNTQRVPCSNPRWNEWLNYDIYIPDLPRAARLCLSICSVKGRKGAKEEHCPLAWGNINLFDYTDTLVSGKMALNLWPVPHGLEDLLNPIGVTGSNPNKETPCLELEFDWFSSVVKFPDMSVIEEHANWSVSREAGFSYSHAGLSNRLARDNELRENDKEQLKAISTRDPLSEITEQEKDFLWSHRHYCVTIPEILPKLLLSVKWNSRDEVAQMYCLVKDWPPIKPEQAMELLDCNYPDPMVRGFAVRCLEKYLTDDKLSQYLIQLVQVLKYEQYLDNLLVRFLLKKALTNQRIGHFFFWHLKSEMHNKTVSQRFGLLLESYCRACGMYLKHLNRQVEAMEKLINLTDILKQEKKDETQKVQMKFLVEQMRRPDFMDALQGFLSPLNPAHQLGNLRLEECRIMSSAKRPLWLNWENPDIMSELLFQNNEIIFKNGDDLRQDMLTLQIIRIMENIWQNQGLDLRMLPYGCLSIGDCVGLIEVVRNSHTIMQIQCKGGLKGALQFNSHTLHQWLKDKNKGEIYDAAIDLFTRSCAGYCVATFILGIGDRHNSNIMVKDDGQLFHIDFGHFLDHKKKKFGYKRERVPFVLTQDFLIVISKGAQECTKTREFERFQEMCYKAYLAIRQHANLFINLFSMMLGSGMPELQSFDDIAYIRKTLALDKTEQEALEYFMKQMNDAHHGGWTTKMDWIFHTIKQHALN
Sequence of PI3Kalpha (P27986 whole entry partner, species assumed): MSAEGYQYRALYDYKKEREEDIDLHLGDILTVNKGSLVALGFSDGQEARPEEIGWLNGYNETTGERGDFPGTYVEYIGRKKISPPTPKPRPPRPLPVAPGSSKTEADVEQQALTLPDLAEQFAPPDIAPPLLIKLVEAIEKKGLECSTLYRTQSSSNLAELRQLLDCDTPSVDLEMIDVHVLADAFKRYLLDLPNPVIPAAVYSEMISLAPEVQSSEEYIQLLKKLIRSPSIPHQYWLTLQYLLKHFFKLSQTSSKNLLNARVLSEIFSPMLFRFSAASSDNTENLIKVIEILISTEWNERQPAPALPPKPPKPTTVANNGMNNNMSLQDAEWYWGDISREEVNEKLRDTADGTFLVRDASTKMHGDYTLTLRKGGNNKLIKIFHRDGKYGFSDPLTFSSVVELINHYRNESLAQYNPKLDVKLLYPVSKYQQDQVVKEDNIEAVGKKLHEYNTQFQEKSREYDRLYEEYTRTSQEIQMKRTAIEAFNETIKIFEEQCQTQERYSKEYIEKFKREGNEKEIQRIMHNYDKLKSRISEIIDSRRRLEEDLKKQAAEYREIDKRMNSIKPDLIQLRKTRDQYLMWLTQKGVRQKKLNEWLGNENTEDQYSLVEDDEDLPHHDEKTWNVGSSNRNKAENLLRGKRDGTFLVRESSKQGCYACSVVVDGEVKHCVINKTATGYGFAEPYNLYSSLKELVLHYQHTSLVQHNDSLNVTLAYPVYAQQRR
Sequence of PI3Kgamma (P48736 whole entry, species assumed): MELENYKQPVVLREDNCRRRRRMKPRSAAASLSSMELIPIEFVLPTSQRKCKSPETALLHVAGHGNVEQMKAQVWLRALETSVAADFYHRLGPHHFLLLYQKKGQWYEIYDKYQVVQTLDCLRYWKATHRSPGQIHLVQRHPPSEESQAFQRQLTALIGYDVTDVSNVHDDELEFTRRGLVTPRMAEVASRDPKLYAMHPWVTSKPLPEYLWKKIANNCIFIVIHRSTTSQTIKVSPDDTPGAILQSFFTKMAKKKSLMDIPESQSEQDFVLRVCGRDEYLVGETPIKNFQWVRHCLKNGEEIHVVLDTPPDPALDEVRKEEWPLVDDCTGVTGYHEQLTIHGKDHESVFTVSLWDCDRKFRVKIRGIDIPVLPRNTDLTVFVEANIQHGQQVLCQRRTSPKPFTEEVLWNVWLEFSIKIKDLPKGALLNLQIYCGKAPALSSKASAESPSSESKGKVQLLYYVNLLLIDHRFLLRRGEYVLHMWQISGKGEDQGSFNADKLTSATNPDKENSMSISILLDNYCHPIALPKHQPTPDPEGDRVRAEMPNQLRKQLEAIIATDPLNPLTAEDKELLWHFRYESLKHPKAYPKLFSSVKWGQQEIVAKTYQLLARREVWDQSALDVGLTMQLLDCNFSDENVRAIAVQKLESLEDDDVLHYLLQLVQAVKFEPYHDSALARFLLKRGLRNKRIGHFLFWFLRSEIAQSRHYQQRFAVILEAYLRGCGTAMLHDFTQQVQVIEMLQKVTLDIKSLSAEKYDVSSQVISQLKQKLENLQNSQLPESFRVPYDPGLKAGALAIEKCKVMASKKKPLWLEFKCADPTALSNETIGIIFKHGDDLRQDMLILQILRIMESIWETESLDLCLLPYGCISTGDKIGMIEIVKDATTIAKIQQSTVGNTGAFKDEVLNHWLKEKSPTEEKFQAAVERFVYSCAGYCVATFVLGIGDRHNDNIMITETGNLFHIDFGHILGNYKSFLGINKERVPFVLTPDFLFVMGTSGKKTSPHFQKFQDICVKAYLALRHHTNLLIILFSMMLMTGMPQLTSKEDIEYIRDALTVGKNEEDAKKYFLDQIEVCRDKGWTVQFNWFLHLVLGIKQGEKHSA
Sequence of PI3Kdelta (O00329 whole entry, species assumed): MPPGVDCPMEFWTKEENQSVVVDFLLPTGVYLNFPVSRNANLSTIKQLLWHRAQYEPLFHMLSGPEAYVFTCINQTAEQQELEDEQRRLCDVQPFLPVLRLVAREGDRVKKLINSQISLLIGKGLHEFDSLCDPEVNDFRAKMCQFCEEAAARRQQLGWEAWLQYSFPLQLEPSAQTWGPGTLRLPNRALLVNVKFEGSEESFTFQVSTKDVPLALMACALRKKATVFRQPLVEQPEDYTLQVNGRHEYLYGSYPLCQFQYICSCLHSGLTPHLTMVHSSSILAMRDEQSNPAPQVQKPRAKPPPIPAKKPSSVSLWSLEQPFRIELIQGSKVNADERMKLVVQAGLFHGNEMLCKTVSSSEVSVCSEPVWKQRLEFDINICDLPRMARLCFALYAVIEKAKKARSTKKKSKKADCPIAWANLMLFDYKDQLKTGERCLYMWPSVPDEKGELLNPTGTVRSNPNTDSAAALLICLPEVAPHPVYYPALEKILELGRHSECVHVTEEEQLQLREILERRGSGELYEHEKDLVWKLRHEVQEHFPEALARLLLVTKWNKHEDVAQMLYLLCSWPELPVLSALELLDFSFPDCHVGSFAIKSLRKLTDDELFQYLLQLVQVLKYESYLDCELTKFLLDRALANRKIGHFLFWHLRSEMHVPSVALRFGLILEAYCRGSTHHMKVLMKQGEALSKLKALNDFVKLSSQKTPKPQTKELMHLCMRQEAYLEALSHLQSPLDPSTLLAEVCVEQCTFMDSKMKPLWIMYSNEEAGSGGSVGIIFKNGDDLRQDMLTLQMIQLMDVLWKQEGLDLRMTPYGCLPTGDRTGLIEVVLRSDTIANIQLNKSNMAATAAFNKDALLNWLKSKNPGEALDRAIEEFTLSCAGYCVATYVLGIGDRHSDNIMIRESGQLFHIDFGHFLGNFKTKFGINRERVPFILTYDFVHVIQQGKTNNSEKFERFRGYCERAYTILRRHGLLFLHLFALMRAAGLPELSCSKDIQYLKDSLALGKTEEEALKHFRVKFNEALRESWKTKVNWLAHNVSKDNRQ
Sequence of PI3Kdelta (P27986 whole entry partner, species assumed): as the sequence (P27986 whole entry partner, species assumed) above

Take `C[C@H]1Cc2ccccc2N1C(=O)Cc1nc(N2CCOCC2)cc(=O)[nH]1` [compound (I), 2-{2-[(2S)-2-methyl-2,3-dihydro-1H-indol-1-yl]-2-oxoethyl}-6-(morpholin-4-yl)pyrimidin-4(3H)-one]: the “inhibition of mTOR” value on mTOR [1] is “not inhibit”. Besides, the entries for the “Absolute IC40 (growth inhibition 40%)” value with PC-3 cells and in the assay on HEC-116 cells were 20,200 nM and 12,400 nM, respectively.
`Cc1nc(NC(=O)N2CCC[C@H]2C(N)=O)sc1-c1ccnc(C(C)(C)C(F)(F)F)c1` [compound (II), (2S)-N1-[4-Methyl-5-[2-(2,2,2-trifluoro-1,1-dimethylethyl)-4-pyridinyl]-2-thiazolyl]-1,2-pyrrolidinedicarboxamide]: the entries for the “Absolute IC40 (growth inhibition 40%)” value in the assay on PC-3 cells and in the assay with HEC-116 cells were 14,700 nM and 8,630 nM, respectively.
With `Cc1c(Cn2c(C)nc3c(C(=O)O)cc(N4CCOCC4)cc32)cccc1C(F)(F)F` [compound (III)], the “selectivity over PI3Kdelta” value on PI3Kdelta is listed as 12 fold. In addition, the “selectivity over PI3Kalpha” value on PI3Kalpha is recorded as greater than 1000 fold. Moreover, the “selectivity over PI3Kgamma” value at PI3Kgamma is reported as greater than 1000 fold. On mTOR [2], the “selectivity over mTOR” value was greater than 1000 fold. Also, the “inhibition of 294 other kinases” value in the assay with 294 other kinases is on record as “less than 30%”.

Values taken from patent US20160030440A1, “ANTI-TUMORAL COMPOSITION COMPRISING A PI3KBETA-SELECTIVE INHIBITOR AND A PI3KALPHA-SELECTIVE INHIBITOR” (SANOFI, priority 2013, published 2016).
